Patent US11566029B2, “Pyrazolo[1,5-a]pyrimidine-5,7-diamine compounds as CDK inhibitors and their therapeutic use” (CANCER RESEARCH TECHNOLOGY LIMITED, priority 2014, dated 2023)
pIC50: −log10 of the molar value. Structures can show the parent of a compound that is named as a salt. Blank lines part the entries; values can stand above or below the molecule they belong to.

Assays:
[1] = target: T1, CDK2/cycA1 (Homo sapiens, UniProt P24941); test: In vitro kinase assay (PKLight luciferase ATP readout), CDK2; format: biochemical; conditions: ATP at Km; read-out: In vitro Kinase Inhibition CDK2 IC50
T1 construct: purchased ProQinase GmbH
Procedure: (§1) Purified recombinant CDK1/cycA1, CDK2/cycA1, CDK4/cycD1, CDK5/p35NCK, CDK6/cycD1, CDK7/CycH/MAT1, and CDK9/CycT1 were purchased from ProQinase GmbH. Kinase assays were performed according to manufacturer's protocols. Rb-CTF (ProQinase GmbH) (cat number: 0040-0000-6) was used as the kinase substrate for CDK1, CDK2, CDK4, and CDK6 kinases. […] A luciferase assay (PKLight assay; Cambrex) was used to determine ATP remaining at the end of the kinase reaction, which provides a measure of kinase activity, according to the manufacturer's protocols.
(§2) Kinase assays were carried out by incubation of increasing amounts of test compound with purified recombinant CDK-Cyclin complex, followed by measurement of free ATP remaining in the reaction using the luciferase assay kit (PKLight, Cambrex) which therefore provided a measure of inhibition for the specific CDK.
(§3) 5 μL of 1× kinase buffer (Cell Signalling Technologies) was mixed with 200 ng CDK1, 200 ng CDK2, 50 ng CDK4, 100 ng CDK5, or 200 ng CDK6 with 5 μg Rb-CTF and 300 ng CDK7 or 200 ng CDK9 with 500 μM RNA Poll II CTD peptide. […] The mixture was incubated at 30° C. for 30 minutes. The reaction is stopped with 20 μL of Stop Solution (provided in the PKLight kit) for 10 minutes at room temperature. Then 40 μL of the luciferase mix was added to the reaction mixture which was incubated for a further 10 minutes at room temperature and measured using the Tecan Infinite 2000 plate reader. GraphPad Prism Software was used to generate standard curve and determine the IC50's for each CDK.

[2] = tested on: HCT116 cells; test: Cell growth inhibition assay (sulforhodamine B), HCT116; format: cell-based; conditions: Homo sapiens, HCT-116; 72 hours, SRB assay; read-out: Growth Inhibition, GI50 HCT116
Procedure: (§4) All cells were purchased from the American Type Culture Collection (ATCC) and MCF7 cells were routinely cultured in Dulbecco's Modified Eagle's Medium (DMEM) supplemented with 10% fetal calf serum (FCS) (First Link) and HCT116 cells were routinely cultured in Roswell Park Memorial Instititute Medium (RPMI) supplemented with 10% FCS. Cell growth was assessed using a known sulforhodamine B assay (see, e.g., Skehan et al., 1990).
(§5) MCF-7 cells purchased from ATCC (USA) were routinely passaged in DMEM, supplemented with 10% FCS and HCT116 cells purchased from ATCC (USA) were routinely passaged in RPMI supplemented with 10% FCS and kept in a 37° C. incubator with 5% CO2. The growth assay for both cell lines was performed in the appropriate media using the exact same protocol as described here. For the growth assay, 5000 cells were seeded into each well of 96-well plates in DMEM containing 10% FCS. Test compounds prepared in DMSO were added to the medium at concentrations ranging from 0.00038-100 μM. The cells were incubated for a further 72 hours, at which time they were fixed by the addition of 100 μL/well of ice-cold 40% trichloroacetic acid (TCA). The plates were left for 1 hour at 4° C., washed in water and 100 μL of 0.4% (w/v) sulforhodamine (SRB; Sigma-Aldrich, UK) prepared in 1% acetic acid was added. Plates were washed in 1% acetic acid to remove excess SRB reagent, air dried, and bound dye was solubilized by the addition of 100 μL of 10 mM tris base. The plates were read at 492 nm using a plate reader.

[3] = target: T2, CDK7/CycH/MAT1 (Homo sapiens, UniProt P50613); test: In vitro kinase assay (PKLight luciferase ATP readout), CDK7; format: biochemical; conditions: for pIC50: ATP at Km, read-out: In vitro Kinase Inhibition CDK7 IC50; for Selectivity CDK1/CDK7: ratio of CDK1 IC50 to CDK7 IC50; for Selectivity CDK2/CDK7: ratio of CDK2 IC50 to CDK7 IC50
T2 construct: purchased ProQinase GmbH
Procedure: as §1, §2, §3

[4] = tested on: MCF7 cells; test: Cell growth inhibition assay (sulforhodamine B), MCF7; format: cell-based; conditions: Homo sapiens, 72 hours, SRB assay, read-out: Growth Inhibition, GI50 MCF7
Procedure: as §4, §5

[5] = target: T3, CDK1/cycA1 (Homo sapiens, UniProt P06493); test: In vitro kinase assay (PKLight luciferase ATP readout), CDK1; format: biochemical; conditions: ATP at Km; read-out: In vitro Kinase Inhibition CDK1 IC50
T3 construct: purchased ProQinase GmbH
Procedure: as §1, §2, §3

T2 sequence (P50613 whole entry): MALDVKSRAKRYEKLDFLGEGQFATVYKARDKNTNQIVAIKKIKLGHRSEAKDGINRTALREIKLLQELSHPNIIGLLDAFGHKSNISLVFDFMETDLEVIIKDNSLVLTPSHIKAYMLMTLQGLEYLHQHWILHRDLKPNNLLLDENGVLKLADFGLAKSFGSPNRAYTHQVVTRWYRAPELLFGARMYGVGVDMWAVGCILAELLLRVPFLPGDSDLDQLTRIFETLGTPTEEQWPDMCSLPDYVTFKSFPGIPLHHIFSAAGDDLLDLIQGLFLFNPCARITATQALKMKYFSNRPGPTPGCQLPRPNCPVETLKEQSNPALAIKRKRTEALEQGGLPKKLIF
T2 sequence (P51946 whole entry partner): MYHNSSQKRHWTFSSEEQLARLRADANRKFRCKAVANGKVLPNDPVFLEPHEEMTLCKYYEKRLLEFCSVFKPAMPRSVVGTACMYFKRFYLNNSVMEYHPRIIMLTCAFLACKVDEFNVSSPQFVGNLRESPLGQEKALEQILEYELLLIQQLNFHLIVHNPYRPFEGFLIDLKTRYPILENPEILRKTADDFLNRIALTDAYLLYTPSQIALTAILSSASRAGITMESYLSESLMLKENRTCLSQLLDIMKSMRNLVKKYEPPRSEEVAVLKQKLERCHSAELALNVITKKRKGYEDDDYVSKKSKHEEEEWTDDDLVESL
T2 sequence (P51948 whole entry partner): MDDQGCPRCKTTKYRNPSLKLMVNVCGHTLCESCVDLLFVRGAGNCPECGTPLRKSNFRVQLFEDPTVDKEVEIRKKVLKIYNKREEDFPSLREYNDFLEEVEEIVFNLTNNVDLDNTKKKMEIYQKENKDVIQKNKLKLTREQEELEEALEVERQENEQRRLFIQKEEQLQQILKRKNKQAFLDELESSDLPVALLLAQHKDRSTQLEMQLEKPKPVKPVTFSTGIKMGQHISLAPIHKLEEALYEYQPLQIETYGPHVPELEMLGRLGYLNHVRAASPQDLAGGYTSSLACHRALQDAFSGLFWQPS

pIC50 [1]: 7.66
GI50 [2]: 1.5 µM
pIC50 [3]: 7.36
Selectivity CDK1/CDK7 [3]: 10 fold
Selectivity CDK2/CDK7 [3]: 0.5 fold
GI50 [4]: 0.6 µM
pIC50 [5]: 6.36
SMILES: CC(C)c1cnn2c(NCc3ccncc3)cc(NC[C@@]3(CO)CCNC3)nc12 (racemic) [PPDA-020]

pIC50 [1]: 6.12
GI50 [2]: 11.4 µM
pIC50 [3]: 5.72
Selectivity CDK1/CDK7 [3]: 0.7 fold
Selectivity CDK2/CDK7 [3]: 0.4 fold
GI50 [4]: 12.8 µM
pIC50 [5]: 5.87
SMILES: CC(C)c1cnn2c(NCc3ccc(C(F)(F)F)cc3)cc(N[C@H]3CNC[C@H]3O)nc12 [PPDA-017]

pIC50 [1]: 8.05
GI50 [2]: 0.4 µM
pIC50 [3]: 7.54
Selectivity CDK1/CDK7 [3]: 2.8 fold
Selectivity CDK2/CDK7 [3]: 0.3 fold
GI50 [4]: 0.3 µM
pIC50 [5]: 7.10
SMILES: CC(C)c1cnn2c(NCC3CCCCC3)cc(NC[C@@]3(CO)CCNC3)nc12 (racemic) [PPDA-019]

pIC50 [1]: 6.17
GI50 [2]: 8.9 µM
pIC50 [3]: 7.74
Selectivity CDK1/CDK7 [3]: 14 fold
Selectivity CDK2/CDK7 [3]: 38 fold
GI50 [4]: 3.4 µM
pIC50 [5]: 6.60
SMILES: COC[C@H]1C[C@@H](Nc2cc(NCc3ccccc3)n3ncc(C(C)C)c3n2)CN1 [PPDA-027]

pIC50 [1]: 7.66
GI50 [2]: 1.2 µM
pIC50 [3]: 7.09
Selectivity CDK1/CDK7 [3]: 2.2 fold
Selectivity CDK2/CDK7 [3]: 0.3 fold
GI50 [4]: 0.2 µM
pIC50 [5]: 6.75
SMILES: CC(C)c1cnn2c(NCc3ccccc3Cl)cc(NC[C@@]3(CO)CCNC3)nc12 (racemic) [PPDA-021]

pIC50 [1]: 6.25
GI50 [2]: 10.4 µM
pIC50 [3]: 7.14
Selectivity CDK1/CDK7 [3]: 26 fold
Selectivity CDK2/CDK7 [3]: 7.8 fold
GI50 [4]: 3.7 µM
pIC50 [5]: 5.72
SMILES: CC(C)c1cnn2c(NCc3ccccc3)cc(N[C@@H]3CNCC[C@H]3O)nc12 [PPDA-022, (3R,4R)-3-(7-(Benzylamino)-3-iso-propyl-pyrazolo[1,5-a]pyrimidin-5-ylamino) piperidin-4-ol]

pIC50 [1]: 5.34
GI50 [2]: 7.4 µM
pIC50 [3]: 6.61
Selectivity CDK1/CDK7 [3]: 5.9 fold
Selectivity CDK2/CDK7 [3]: 18 fold
GI50 [4]: 13.1 µM
pIC50 [5]: 5.84
SMILES: CC(C)c1cnn2c(NCC3CCCCC3)cc(N[C@H]3CNC[C@H]3O)nc12 [PPDA-016]

pIC50 [1]: 5.99
GI50 [2]: 46.4 µM
pIC50 [3]: 6.82
Selectivity CDK1/CDK7 [3]: 5.6 fold
Selectivity CDK2/CDK7 [3]: 6.8 fold
GI50 [4]: 12.2 µM
pIC50 [5]: 6.07
SMILES: CC(C)c1cnn2c(NCc3ccccc3)cc(N[C@H]3CNCC[C@@]3(O)CO)nc12 [PPDA-024]

pIC50 [1]: 6.58
GI50 [2]: 7.3 µM
pIC50 [3]: 7.37
Selectivity CDK1/CDK7 [3]: 93 fold
Selectivity CDK2/CDK7 [3]: 6.1 fold
GI50 [4]: 3.3 µM
pIC50 [5]: 5.40
SMILES: CC(C)c1cnn2c(NCc3ccccc3)cc(N[C@H]3CN[C@@H](CO)C3)nc12 [PPDA-028]

pIC50 [1]: 6.32
GI50 [2]: 53.5 µM
pIC50 [3]: 6.01
Selectivity CDK1/CDK7 [3]: 8.9 fold
Selectivity CDK2/CDK7 [3]: 0.5 fold
GI50 [4]: 45.6 µM
pIC50 [5]: 5.06
SMILES: CC(C)c1cnn2c(NCC3CCCCC3)cc(NC[C@]3(O)CCNC[C@H]3O)nc12 (racemic) [PPDA-014]

Further lines, the molecule ahead of its results:

SMILES: CC(C)c1cnn2c(NCc3ccccc3Br)cc(NCC3(O)CCNCC3)nc12 [PPDA-012]
pIC50 [1]: 6.93
GI50 [2]: 1.6 µM
pIC50 [3]: 6.32
Selectivity CDK1/CDK7 [3]: 0.2 fold
Selectivity CDK2/CDK7 [3]: 0.2 fold
GI50 [4]: 0.5 µM
pIC50 [5]: 7.13

SMILES: CC(C)c1cnn2c(Nc3ccc(S(=O)(=O)N(C)C)cc3)cc(NC[C@H]3CCNC[C@@H]3O)nc12 [PPDA-005]
pIC50 [1]: 7.42
GI50 [2]: 7.2 µM
pIC50 [3]: 6.95
Selectivity CDK1/CDK7 [3]: 1.9 fold
Selectivity CDK2/CDK7 [3]: 0.3 fold
GI50 [4]: 4.22 µM
pIC50 [5]: 6.67

SMILES: CC(C)c1cnn2c(NCc3ccccc3)cc(N[C@H]3CNCC3O)nc12 (stereo in doubt) [PPDA-015, (3S,4S)-4-(7-(Benzylamino)-3-iso-propyl-pyrazolo[1,5-a]pyrimidin-5-ylamino)-pyrrolidin-3-ol hydrochloride]
pIC50 [1]: 5.89
GI50 [2]: 12.7 µM
pIC50 [3]: 7.57
Selectivity CDK1/CDK7 [3]: 146 fold
Selectivity CDK2/CDK7 [3]: 48 fold
GI50 [4]: 4.1 µM
pIC50 [5]: 5.40

SMILES: CC(C)c1cnn2c(NCC3CCCCC3)cc(NC[C@H]3CCNC[C@@H]3O)nc12 [PPDA-004]
pIC50 [1]: 5.89
GI50 [2]: 2.5 µM
pIC50 [3]: 6.03
Selectivity CDK1/CDK7 [3]: 1.9 fold
Selectivity CDK2/CDK7 [3]: 1.4 fold
GI50 [4]: 2.7 µM
pIC50 [5]: 5.74

SMILES: CC(C)c1cnn2c(Nc3csc4ccccc34)cc(NC[C@H]3CCNC[C@@H]3O)nc12 [PPDA-008]
pIC50 [1]: 7.38
GI50 [2]: 5.1 µM
pIC50 [3]: 6.92
Selectivity CDK1/CDK7 [3]: 25 fold
Selectivity CDK2/CDK7 [3]: 0.4 fold
GI50 [4]: 3.1 µM
pIC50 [5]: 5.53

SMILES: CC(C)c1cnn2c(NCc3ccccc3Cl)cc(NCC3(O)CCNCC3)nc12 [PPDA-011]
pIC50 [1]: 7.01
GI50 [2]: 1.6 µM
pIC50 [3]: 6.38
Selectivity CDK1/CDK7 [3]: 0.3 fold
Selectivity CDK2/CDK7 [3]: 0.2 fold
GI50 [4]: 0.3 µM
pIC50 [5]: 6.84

SMILES: CC(C)c1cnn2c(NC(=O)C3CCNCC3)cc(NC[C@H]3CCNC[C@@H]3O)nc12 [PPDA-009, N-(5-((((3R,4R)-3-Hydroxypiperidin-4-yl)methyl)amino)-3-iso-propylpyrazolo[1,5-a]pyrimidin-7-yl)piperidine-4-carboxamide hydrochloride]
pIC50 [1]: 6.34
GI50 [2]: 86.6 µM
pIC50 [3]: 6.34
Selectivity CDK1/CDK7 [3]: 1.2 fold
Selectivity CDK2/CDK7 [3]: 1.0 fold
GI50 [4]: 38.9 µM
pIC50 [5]: 6.25
